Among the data in PubChem BioAssay AID192 (DTP/NCI, 2004) are T/C values, retold here.

The assay relates to BDF1 mice, B16 melanoma ip, median survival T/C. The assay can be described thus: NCI In Vivo Anticancer Drug Screen. Data for tumor model B16 Melanoma (intraperitoneal) in B6D2F1 (BDF1) mice. The conditions noted are these: endpoint: median survival time, higher = longer survival. How it is done: The antitumor activity of compounds was measured in mice bearing transplantable tumors. Survival or tumor size were measured and the results are expressed as the measurement made in the treated group (T) divided by the measurement made in the vehicle treated control group (C). The tumor model used in this assay is B16 Melanoma (intraperitoneal) in B6D2F1 (BDF1) mice

Setting [1] is: dose: 50.0 mg/kg/injection, schedule: Q01DX009 (ip), vehicle: Klucel (hydroxypropylcellulose) (HPC).
The mark [2] stands for this setting: dose: 100.0 mg/kg/injection, schedule: Q01DX009 (ip), vehicle: Klucel (hydroxypropylcellulose) (HPC).
The mark [3] stands for this setting: dose: 200.0 mg/kg/injection, schedule: Q01DX009 (ip), vehicle: Klucel (hydroxypropylcellulose) (HPC).
Where [4] appears, read: dose: 6.25 mg/kg/injection, schedule: Q01DX009 (ip), vehicle: Klucel (hydroxypropylcellulose) (HPC).
Where [5] appears, read: dose: 12.5 mg/kg/injection, schedule: Q01DX009 (ip), vehicle: Klucel (hydroxypropylcellulose) (HPC).
[6] abbreviates: dose: 25.0 mg/kg/injection, schedule: Q01DX009 (ip), vehicle: Klucel (hydroxypropylcellulose) (HPC).
Where [7] appears, read: dose: 25.0 mg/kg/injection, schedule: Q01DX009 (ip), vehicle: saline.
[8] abbreviates: dose: 50.0 mg/kg/injection, schedule: Q01DX009 (ip), vehicle: saline.
Setting [9] is: dose: 100.0 mg/kg/injection, schedule: Q01DX009 (ip), vehicle: saline.
Setting [10] is: dose: 200.0 mg/kg/injection, schedule: Q01DX009 (ip), vehicle: saline.
The mark [11] stands for this setting: dose: 6.25 mg/kg/injection, schedule: Q01DX009 (ip), vehicle: saline with Tween-80.

Values joined by “and” are separate entries in the source; they are usually repeats but may differ in a detail not shown here. Equal entries are not always repeated. Toxic doses and inconclusive results are not listed.

`O=C1OC(C(O)CO)C(O)=C1O` (configuration not stated): the T/C runs as follows: (dose: 0.12 mg/kg/injection, schedule: Q01DX009 (ip), vehicle: saline) 100 % of control; (dose: 0.25 mg/kg/injection, schedule: Q01DX009 (ip), vehicle: saline) 110 % of control; (dose: 0.5 mg/kg/injection, schedule: Q01DX009 (ip), vehicle: saline) 105 % of control; (dose: 1.0 mg/kg/injection, schedule: Q01DX001 (ip), vehicle: saline) 102 % of control; (dose: 1.0 mg/kg/injection, schedule: Q01DX009 (ip), vehicle: saline) 110 % of control; (dose: 2.0 mg/kg/injection, schedule: Q01DX001 (ip), vehicle: saline) 100 % of control. Also, the T/C was 110 % of control (dose: 2.0 mg/kg/injection, schedule: Q01DX009 (ip), vehicle: saline); 95 % of control (dose: 4.0 mg/kg/injection, schedule: Q01DX001 (ip), vehicle: saline); 105 % of control (dose: 4.0 mg/kg/injection, schedule: Q01DX009 (ip), vehicle: saline); 102 % of control (dose: 8.0 mg/kg/injection, schedule: Q01DX001 (ip), vehicle: saline); 110 % of control (dose: 8.0 mg/kg/injection, schedule: Q01DX009 (ip), vehicle: saline); 100 % of control (dose: 16.0 mg/kg/injection, schedule: Q01DX001 (ip), vehicle: saline). Also, the T/C by setting is: (dose: 16.0 mg/kg/injection, schedule: Q01DX009 (ip), vehicle: saline) 95 % of control; (dose: 32.0 mg/kg/injection, schedule: Q01DX001 (ip), vehicle: saline) 100 % of control; (dose: 64.0 mg/kg/injection, schedule: Q01DX001 (ip), vehicle: saline) 97 % of control.
Turning to `Clc1ccc(C(c2ccc(Cl)cc2)C(Cl)(Cl)Cl)cc1`, the T/C is, setting by setting: (dose: 16.0 mg/kg/injection, schedule: Q01DX009 (ip), vehicle: Klucel (hydroxypropylcellulose) (HPC)) 101 % of control; (dose: 32.0 mg/kg/injection, schedule: Q01DX009 (ip), vehicle: Klucel (hydroxypropylcellulose) (HPC)) 92 % of control.
Turning to `CC(=O)OC1c2ccccc2C(=O)C1(OC(C)=O)c1ccccc1` (configuration not stated), the T/C was 102 % of control under setting [1], 94 % of control under setting [2] and 102 % of control under setting [3].
Take `CCCCN(CCCC)C(Cl)=Nc1ccccc1`: the T/C under setting [4] is 89 % of control and 99 % of control; the T/C under setting [5] is 101 % of control and 102 % of control; the T/C under setting [6] is 101 % of control; the T/C under setting [1] was 96 % of control and 103 % of control; the T/C under setting [2] is 93 % of control and 105 % of control; the T/C under setting [3] was 88 % of control and 100 % of control.
With `C=C(C)C12CC(COC(=O)c3ccccc3)C34OC5(OC1C3C1OC1(CO)C(O)C1(O)C(OC(=O)c3ccccc3)C(C)C(C(C)CCCCCCC5O)C14)O2` (configuration not stated), the T/C is, setting by setting: (dose: 3.8 micrograms/kg/injection, schedule: Q01DX009 (ip), vehicle: saline with Tween-80) 93 % of control; (dose: 7.5 micrograms/kg/injection, schedule: Q01DX009 (ip), vehicle: saline with Tween-80) 97 % of control.
For `Nc1ccc2ncccc2c1`, the T/C is 111 % of control (dose: 12.5 mg/kg/injection, schedule: Q01DX009 (ip), vehicle: saline); 105 % of control under setting [7]; 109 % of control under setting [8].
Take `CCCCCCCCCCCCCCCC(=O)N(CCCN)C(C)CCCN(CC)CC` (configuration not stated): the T/C is 105 % of control under setting [5], 100 % of control under setting [6], 107 % of control under setting [1] and 101 % of control under setting [2].
Turning to `CCCCCCN(CCCCCC)CC(O)c1ccc2c3c(cccc13)CC2` (configuration not stated), the T/C runs as follows: under setting [1], 105 % of control; under setting [2], 98 % of control; under setting [3], 101 % of control.
`CCC(=O)O[C@H]1CC[C@H]2[C@@H]3CCC4=CC(=O)CC[C@]4(C)[C@H]3CC[C@]12C`: the T/C under setting [6] is 96 % of control; the T/C (dose: 40.0 mg/kg/injection, schedule: Q02DX009 (ip), vehicle: Klucel (hydroxypropylcellulose) (HPC)) was 100 % of control; the T/C under setting [1] was 90 % of control; the T/C (dose: 80.0 mg/kg/injection, schedule: Q02DX009 (ip), vehicle: Klucel (hydroxypropylcellulose) (HPC)) is 105 % of control; the T/C under setting [2] was 95 % of control; the T/C under setting [3] is 91 % of control. The T/C was 105 % of control (dose: 320.0 mg/kg/injection, schedule: Q02DX009 (ip), vehicle: Klucel (hydroxypropylcellulose) (HPC)) and 94 % of control (dose: 400.0 mg/kg/injection, schedule: Q01DX009 (ip), vehicle: Klucel (hydroxypropylcellulose) (HPC)).
On to `COC(=O)[C@@H]1[C@H](O)[C@H](C)[C@H](O)[C@@](C)(O)/C=C\C=C(C)C(=O)Nc2c(C)c(OC(C)=O)c3c(c2O)C(=O)C(C)=C2OCOC(=C23)C(C)=C[C@@](C)(O)[C@H](O)[C@@H](C)[C@H]1OC(C)=O`, for which the T/C by setting is: under setting [4], 106 % of control; under setting [5], 99 % of control; under setting [6], 90 % of control; under setting [1], 91 % of control; (dose: 75.0 mg/kg/injection, schedule: Q01DX009 (ip), vehicle: saline with Tween-80) 97 % of control; under setting [2], 95 % of control. In addition, the T/C by setting is: (dose: 150.0 mg/kg/injection, schedule: Q01DX009 (ip), vehicle: saline with Tween-80) 91 % of control; (dose: 300.0 mg/kg/injection, schedule: Q01DX009 (ip), vehicle: saline with Tween-80) 87 % of control.
In the case of `NC(=O)N1OCC(N)C1=O` (configuration not stated), the T/C under setting [8] is 95 % of control, the T/C under setting [9] is 103 % of control and the T/C under setting [10] was 95 % of control.
Turning to `O=C(C=C(C(F)(F)F)C(F)(F)F)c1cccc([N+](=O)[O-])c1`, the T/C is, setting by setting: (dose: 0.2 mg/kg/injection, schedule: Q01DX009 (ip), vehicle: saline) 95 % of control; (dose: 0.4 mg/kg/injection, schedule: Q01DX009 (ip), vehicle: saline) 102 % of control; (dose: 0.8 mg/kg/injection, schedule: Q01DX009 (ip), vehicle: saline) 95 % of control; under setting [11], 86 % of control; (dose: 6.25 mg/kg/injection, schedule: Q04DX003 (ip), vehicle: saline with Tween-80) 113 % of control; (dose: 25.0 mg/kg/injection, schedule: Q04DX003 (ip), vehicle: saline with Tween-80) 111 % of control.
`O=S(=O)(O)c1ccc(N=Nc2ccc(O)cc2)cc1`: the T/C is, setting by setting: (dose: 50.0 mg/kg/injection, schedule: Q04DX003 (ip), vehicle: Klucel (hydroxypropylcellulose) (HPC)) 105 % of control; (dose: 100.0 mg/kg/injection, schedule: Q04DX003 (ip), vehicle: Klucel (hydroxypropylcellulose) (HPC)) 97 % of control; (dose: 200.0 mg/kg/injection, schedule: Q04DX003 (ip), vehicle: Klucel (hydroxypropylcellulose) (HPC)) 91 % of control.
Consider `O=Cc1ccc(C(=O)O)cc1`, for which the T/C runs as follows: (dose: 100.0 mg/kg/injection, schedule: Q04DX003 (ip), vehicle: saline with Tween-80) 93 % of control; (dose: 200.0 mg/kg/injection, schedule: Q04DX003 (ip), vehicle: saline with Tween-80) 93 % of control; (dose: 400.0 mg/kg/injection, schedule: Q04DX003 (ip), vehicle: saline with Tween-80) 86 % of control.
Take `O=C1NC(c2ccccc2)(c2ccccc2)C(=O)N1CCN(CCCl)CCCl`: the T/C runs as follows: (dose: 1.3 mg/kg/injection, schedule: Q01DX009 (ip), vehicle: Klucel (hydroxypropylcellulose) (HPC)) 93 % of control; (dose: 2.0 mg/kg/injection, schedule: Q01DX009 (ip), vehicle: Klucel (hydroxypropylcellulose) (HPC)) 105 % of control; (dose: 3.12 mg/kg/injection, schedule: Q01DX009 (ip), vehicle: Klucel (hydroxypropylcellulose) (HPC)) 160 % of control; under setting [4], 161 % of control; under setting [6], 103 % of control; under setting [1], 153 % of control.
As for `CCN(CC)Cc1cc2[nH]c3c4ccc(Cl)cc4ncc3c2cc1OC`, the T/C is, setting by setting: under setting [11], 95 % of control; (dose: 12.5 mg/kg/injection, schedule: Q01DX009 (ip), vehicle: saline with Tween-80) 98 % of control; (dose: 25.0 mg/kg/injection, schedule: Q01DX009 (ip), vehicle: saline with Tween-80) 98 % of control.
Consider `CCC1C(=O)NC(=O)C1(C)c1ccccc1` (configuration not stated), for which the T/C under setting [7] was 105 % of control, the T/C under setting [8] is 108 % of control, the T/C under setting [9] was 100 % of control and the T/C under setting [10] is 100 % of control.
